Assay results reported in patent US9382188B2, “Aromatic ring compound” (TAKEDA PHARMACEUTICAL COMPANY LIMITED, priority 2012, dated 2016).

Target: T1, human GPR40 (Homo sapiens, UniProt O14842)
T1 construct: expressed in transfected cells
Assay: Evaluation of human GPR40 agonist activity with increase in intracellular Ca2+ concentration as an index (FLIPR Tetra)
Type: cell-based
Conditions: test compound 1 μM; CHO(dhfr-) cells stably expressing human GPR40; 100% = activity of 1 μM WO2009/048527 Example 99.2, 0% = DMSO
Method: Evaluation of human GPR40 agonist activity with increase in intracellular Ca^2+ concentration as an index
CHO(dhfr-) cells that stably expressed human GPR40 were suspended in MEMα (Nikken Bio Medical Laboratory) containing 10% dialysis serum (GEMINI BIO-PRODUCTS), 10 mM HEPES (Invitrogen), 100 U/mL penicillin, 100 μg/mL streptomycin (Invitrogen), and plated on a 384 well black/clear cell culture plate at 10,000 cells/well. After culture overnight in a CO2 incubator at 37° C., the culture supernatant was removed, and a loading buffer [dye attached to Calcium 5 Assay Kit (Molecular Devices) was dissolved in an assay buffer (20 mM HEPES, 0.2% fatty acid-free BSA (Sigma-Aldrich), 2.5 mM probenecid (DOJINDO)-containing HBSS (Invitrogen)) added with 0.025% Cremophor EL (DOJINDO)] was added at 37.5 μL/well. After incubation in a CO2 incubator at 37° C. for 1 hr, the cells were stood at room temperature for 15 min, an assay buffer containing the test compound at a final concentration of 1 μM was added at 12.5 μL/well in FLIPR Tetra (Molecular Devices), and the fluorescence amount was successively measured. Human GPR40 agonist activity calculated using an increase in the intracellular Ca^2+ concentration as an index, wherein the activity of 1 μM of the compound described in WO 2009/048527 (WO2009/048527 Example 99.2) was 100%, and the activity when DMSO was added instead of the test compound was 0%.

T1 sequence (O14842 whole entry): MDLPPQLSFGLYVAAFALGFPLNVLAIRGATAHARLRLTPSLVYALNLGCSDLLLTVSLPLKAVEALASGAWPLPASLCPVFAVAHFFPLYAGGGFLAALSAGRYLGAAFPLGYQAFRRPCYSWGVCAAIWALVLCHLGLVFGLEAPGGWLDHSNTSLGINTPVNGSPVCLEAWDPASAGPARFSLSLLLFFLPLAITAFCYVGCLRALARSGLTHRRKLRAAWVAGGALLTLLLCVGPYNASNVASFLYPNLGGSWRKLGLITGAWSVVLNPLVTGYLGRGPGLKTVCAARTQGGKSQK

Structure (SMILES)	activation at 1 µM	Human GPR40 agonist activity (increase in intracellular Ca2+ concentration)
COc1ccc(F)c(-c2ccc(OCc3cccc(C(CC(=O)O)C4CC4)c3)cc2OC(C)(C)C)c1 (stereo not shown) [Example 74, 3-(3-(((2-tert-butoxy-2′-fluoro-5′-methoxybiphenyl-4-yl)oxy)methyl)phenyl)-3-cyclopropylpropanoic acid]	104%	
COc1ccc(F)c(-c2ccc(OCc3cccc(C(CC(=O)O)C4CC4)c3)cc2-c2nnc(C(F)(F)F)s2)c1 (stereo not shown) [Example 75, 3-cyclopropyl-3-(3-(((2′-fluoro-5′-methoxy-2-(5-(trifluoromethyl)-1,3,4-thiadiazol-2-yl)-[1,1′-biphenyl]-4-yl)oxy)methyl)phenyl)propanoic acid]	91%	
CC#CC(CC(=O)O)c1cccc(COc2ccc(-c3cc(OC)ccc3F)c(CC(C)(C)C)c2)c1 (stereo not shown) [Example 76, 3-(3-(((2′-fluoro-5′-methoxy-2-neopentyl-[1,1′-biphenyl]-4-yl)oxy)methyl)phenyl)hex-4-ynoic acid]	95%	
COc1ccc(F)c(-c2ccc(OCc3cccc(C(C#CC4CC4)CC(=O)O)c3)cc2CC(C)(C)C)c1 (stereo not shown) [Example 77, 5-cyclopropyl-3-(3-(((2′-fluoro-5′-methoxy-2-neopentyl-[1,1′-biphenyl]-4-yl)oxy)methyl)phenyl)pent-4-ynoic acid]	101%	
COc1ccc(F)c(-c2ccc(OCc3cccc(C(CC(=O)O)C(C)C)c3)cc2CC(C)(C)C)c1 (stereo not shown) [Example 78, 3-(3-(((2′-fluoro-5′-methoxy-2-neopentyl-[1,1′-biphenyl]-4-yl)oxy)methyl)phenyl)-4-methylpentanoic acid]	118%	
C=CC(CC(=O)O)c1cccc(COc2ccc(-c3cc(OC)ccc3F)c(CC(C)(C)C)c2)c1 (stereo not shown) [Example 79, 3-(3-(((2′-fluoro-5′-methoxy-2-neopentyl-[1,1′-biphenyl]-4-yl)oxy)methyl)phenyl)pent-4-enoic acid]	134%	
CCC(CC(=O)O)c1cccc(COc2ccc(-c3cc(OC)ccc3F)c(CC(C)(C)C)c2)c1 (stereo not shown) [Example 80, 3-(3-(((2′-fluoro-5′-methoxy-2-neopentyl-[1,1′-biphenyl]-4-yl)oxy)methyl)phenyl)pentanoic acid]	94%	
CCOC(=O)CC(CC(=O)O)c1cccc(COc2ccc(-c3cc(OC)ccc3F)c(CC(C)(C)C)c2)c1 (stereo not shown) [Example 81, 5-ethoxy-3-(3-(((2′-fluoro-5′-methoxy-2-neopentyl-[1,1′-biphenyl]-4-yl)oxy)methyl)phenyl)-5-oxopentanoic acid]	134%	
COc1ccc(F)c(-c2ccc(OCc3cccc(C(CC(=O)O)CC(=O)O)c3)cc2CC(C)(C)C)c1 [Example 82, 3-(3-(((2′-fluoro-5′-methoxy-2-neopentyl-[1,1′-biphenyl]-4-yl)oxy)methyl)phenyl)pentanedioic acid]	5%	
COc1ccc(F)c(-c2ccc(OCc3cccc(C(CC(N)=O)CC(=O)O)c3)cc2CC(C)(C)C)c1 (stereo not shown) [Example 83, 5-amino-3-(3-(((2′-fluoro-5′-methoxy-2-neopentyl-[1,1′-biphenyl]-4-yl)oxy)methyl)phenyl)-5-oxopentanoic acid]	34%	
COc1ccc(F)c(-c2ccc(OCc3cccc(C(CC(=O)O)C(C)(C)C#N)c3)cc2CC(C)(C)C)c1 (stereo not shown) [Example 84, 4-cyano-3-(3-(((2′-fluoro-5′-methoxy-2-neopentyl-[1,1′-biphenyl]-4-yl)oxy)methyl)phenyl)-4-methylpentanoic acid]	90%	
COc1ccc(F)c(-c2ccc(OCc3cccc(C(CC(=O)O)C(F)(F)C(F)(F)F)c3)cc2CC(C)(C)C)c1 (stereo not shown) [Example 85, 4,4,5,5,5-pentafluoro-3-(3-(((2′-fluoro-5′-methoxy-2-neopentyl-[1,1′-biphenyl]-4-yl)oxy)methyl)phenyl)pentanoic acid]	96%	
COc1ccc(F)c(-c2ccc(OCc3cccc(C(CC(=O)O)C(C)(F)F)c3)cc2CC(C)(C)C)c1 (stereo not shown) [Example 86, 4,4-difluoro-3-(3-(((2′-fluoro-5′-methoxy-2-neopentyl-[1,1′-biphenyl]-4-yl)oxy)methyl)phenyl)pentanoic acid]	95%	
COc1ccc(F)c(-c2ccc(OCc3cccc(C(CC(=O)O)C4CC4C#N)c3)cc2CC(C)(C)C)c1 (stereo not shown) [Example 87, 3-(2-cyanocyclopropyl)-3-(3-(((2′-fluoro-5′-methoxy-2-neopentyl-[1,1′-biphenyl]-4-yl)oxy)methyl)phenyl)propanoic acid]	98%	
COc1ccc(F)c(-c2ccc(OCc3cccc(C(CC(=O)O)C4CC4C#N)c3)cc2CC(C)(C)C)c1 (stereo not shown) [Example 88, 3-(2-cyanocyclopropyl)-3-(3-(((2′-fluoro-5′-methoxy-2-neopentyl-[1,1′-biphenyl]-4-yl)oxy)methyl)phenyl)propanoic acid]		112%
COc1ccc(F)c(-c2ccc(OCc3cccc(C(CCCC#N)CC(=O)O)c3)cc2CC(C)(C)C)c1 (stereo not shown) [Example 89, 6-cyano-3-(3-(((2′-fluoro-5′-methoxy-2-neopentyl-[1,1′-biphenyl]-4-yl)oxy)methyl)phenyl)hexanoic acid]	94%	
COc1ccc(F)c(-c2ccc(OCc3cccc(C(CC(=O)O)C4CC4C#N)c3)cc2CC(C)(C)C)c1 (stereo not shown) [Example 90, 3-(2-cyanocyclopropyl)-3-(3-(((2′-fluoro-5′-methoxy-2-neopentyl-[1,1′-biphenyl]-4-yl)oxy)methyl)phenyl)propanoic acid]		107%
COc1ccc(F)c(-c2ccc(OCc3cccc(C(CC(=O)O)C4CC4C#N)c3)cc2CC(C)(C)C)c1 (stereo not shown) [Example 91, 3-(2-cyanocyclopropyl)-3-(3-(((2′-fluoro-5′-methoxy-2-neopentyl-[1,1′-biphenyl]-4-yl)oxy)methyl)phenyl)propanoic acid]		97%
COc1ccc(F)c(-c2ccc(OCc3cccc(C(CC(=O)O)C4CC4)c3)cc2CCC(C)(C)OC)c1 (stereo not shown) [Example 92, 3-cyclopropyl-3-(3-(((2′-fluoro-5′-methoxy-2-(3-methoxy-3-methylbutyl)biphenyl-4-yl)oxy)methyl)phenyl)propanoic acid]	113%	
COc1ccc(F)c(-c2ccc(OCc3cccc(C(CC(=O)O)C4CC4)c3)cc2CCC(C)(C)C)c1 (stereo not shown) [Example 93, 3-cyclopropyl-3-(3-(((2-(3,3-dimethylbutyl)-2′-fluoro-5′-methoxybiphenyl-4-yl)oxy)methyl)phenyl)propanoic acid]	106%	
COc1ccc(F)c(-c2ccc(OCc3cccc(C(CC(=O)O)C4CC4)c3)cc2C(F)CC(C)(C)C)c1 (stereo not shown) [Example 94, 3-cyclopropyl-3-(3-(((2′-fluoro-2-(1-fluoro-3,3-dimethylbutyl)-5′-methoxybiphenyl-4-yl)oxy)methyl)phenyl)propanoic acid]	110%	
COc1ccc(F)c(-c2ccc(OCc3cccc(C(CC(=O)O)C4CC4)c3)cc2C(O)C(C)(C)C)c1 (stereo not shown) [Example 95]	107%	
COc1ccc(F)c(-c2ccc(OCc3cccc(C(CC(=O)O)C4CC4)c3)cc2C2CC(C)(C)OC(C)(C)C2)c1 (stereo not shown) [Example 96, 3-cyclopropyl-3-(3-(((2′-fluoro-5′-methoxy-2-(2,2,6,6-tetramethyltetrahydro-2H-pyran-4-yl)biphenyl-4-yl)oxy)methyl)phenyl)propanoic acid]	140%	
COc1ccc(F)c(-c2ccc(OCc3cccc(C(CC(=O)O)C4CC4)c3)cc2CC2(C)CCCC2)c1 (stereo not shown) [Example 97, 3-cyclopropyl-3-(3-(((2′-fluoro-5′-methoxy-2-((1-methylcyclopentyl)methyl)biphenyl-4-yl)oxy)methyl)phenyl)propanoic acid]	118%	
COc1ccc(F)c(-c2ccc(OCc3cccc(C(CC(=O)O)C4CC4)c3)cc2C(C)C(C)(C)C)c1 (stereo not shown) [Example 98, 3-cyclopropyl-3-(3-(((2-(3,3-dimethylbutan-2-yl)-2′-fluoro-5′-methoxybiphenyl-4-yl)oxy)methyl)phenyl)propanoic acid]	96%	
COc1ccc(F)c(-c2ccc(OCc3cccc(C(CC(=O)O)C4CC4)c3)cc2CC2(C#N)CCCCC2)c1 (stereo not shown) [Example 99, 3-(3-(((2-((1-cyanocyclohexyl)methyl)-2′-fluoro-5′-methoxybiphenyl-4-yl)oxy)methyl)phenyl)-3-cyclopropylpropanoic acid]	93%	
CCC1(Cc2cc(OCc3cccc(C(CC(=O)O)C4CC4)c3)ccc2-c2cc(OC)ccc2F)CCCC1 (stereo not shown) [Example 100, 3-cyclopropyl-3-(3-(((2-((1-ethylcyclopentyl)methyl)-2′-fluoro-5′-methoxybiphenyl-4-yl)oxy)methyl)phenyl)propanoic acid]	105%	
COc1ccc(F)c(-c2ccc(OCc3cccc(C(CC(=O)O)C4CC4)c3)cc2C(F)C2(C#N)CCCC2)c1 (stereo not shown) [Example 101, 3-(3-(((2-((1-cyanocyclopentyl)(fluoro)methyl)-2′-fluoro-5′-methoxybiphenyl-4-yl)oxy)methyl)phenyl)-3-cyclopropylpropanoic acid]	106%	
